# Assay results taken from patent US20130324493A1, “COMPOSITIONS COMPRISING NINGNANMYCIN AND USES THEREFOR” (North Carolina State University, priority 2012, published 2013).
# Read-outs that look alike come from different tables or passages of the source.
# How the values were obtained:
# [1] = system: rat; conditions: cited from earlier work
# [2] = system: rabbit; conditions: cited from earlier work
# [3] = system: Magnaporthe poae (summer patch); format: cell-based; conditions: preliminary experiment
# [4] = system: P. aphanidermatum; assay: In vitro activity on turfgrass strains; format: cell-based, Pythium aphanidermatum
# [5] = system: M. griesea (turf gray leaf pot); assay: Preliminary in vitro experiment; format: cell-based
# [6] = system: rabbit; conditions: cited from earlier work; remark: listed apart in the source
# [7] = system: Pantoea ananatis; assay: Preliminary in vitro antibacterial study; format: cell-based; conditions: ningnanmycin at 100 ug/ml
# [8] = system: brown patch (Rhizoctonia solani AG2-2IIIB); assay: Preliminary field experiment, brown patch; format: in vivo; conditions: creeping bentgrass
# [9] = system: earthworms; conditions: cited from earlier work
# [10] = system: guinea pig; conditions: cited from earlier work
# [11] = system: Sclerotinia homoeocarpa; assay: In vitro sensitivity assay (radial growth on fungicide-amended PDA); format: cell-based; conditions: Clarireedia homoeocarpa
# Method: (§1) Three isolates of S. homoeocarpa and two isolates of C. cereale were selected to evaluate ningnanmycin (Ningnanmycin 10WP, Deqiang Biological Co., LTD. Harbin, Helongjiang, China) in vitro activities using 5 three-fold dilutions from 0.81 to 0.01 μg a.i./ml. […] Based on preliminary experiments, five dilutions of triticonazole were used, ranging from 0.81 to 0.01 μg a.i/ml for isolates of S. homoeocarpa and from 6.25 to 0.01 μg a.i./ml for isolates of C. cereale. All isolates were prepared for long-term storage on pieces of dried filter paper maintained at −80° C. Filter paper sections containing each isolate were removed from −80° C. storage and placed on PDA amended with 0.05 μg/ml each of chloramphenicol, streptomycin, and tetracycline (PDA+++). After 3 days, mycelium-containing plugs (1×1 cm) were transferred to water agar for another 2 days. Then, water agar plugs (0.45 cm diameter) were cut from the periphery of the colony using a cork borer and placed on the center of Petri dishes containing non-amended PDA and PDA amended with the serial concentrations of each fungicide with three replicates per isolate. Radial growth was measured after three days (72 h) incubation at room temperature for isolates of S. homoeocarpa and seven days for isolates of C. cereale. Relative Growth (RG) was calculated by dividing colony diameter on amended PDA by that on the non-amended PDA. EC50 values were then calculated using the method described by Secor et al. (Fungicide resistance assays for fungal plant pathogens. Methods Mol Biol. 835:385-392, 2012). The in vitro sensitivity assay repeated twice and EC50 value of each isolates was determined as the mean of EC50 values from two assays.
# [12] = system: Colletotrichum cereale; assay: as above; format: cell-based
# Method: as §1
# [13] = system: Ophiosphaerella herpotricha (spring dead spot); assay: Preliminary in vitro experiment; format: cell-based
# [14] = system: rat; conditions: cited from earlier work; remark: listed apart in the source
# [15] = system: honey bee; conditions: cited from earlier work
# [16] = system: Rhizoctonia solani (AG2-2IIIB); assay: In vitro activity; format: cell-based; conditions: AG2-2IIIB causing brown patch on creeping bentgrass
# [17] = system: green algae; conditions: green algae, 72 h; cited from earlier work
# [18] = system: mammals; conditions: Hu et al. 1997; cited from earlier work
# [19] = system: X. translucent; assay: Preliminary in vitro antibacterial study; format: cell-based
# [20] = system: anthracnose (C. cereale); assay: Field efficacy test, control of anthracnose on putting green turf; format: in vivo, 'Dominant Plus' creeping bentgrass; conditions: for Turf quality: 1-to-9 scale (9 = best), anthracnose trial; for anthracnose control (in words): 2010, August
# [21] = system: Xanthomonas pruni; assay: Preliminary in vitro antibacterial study; format: cell-based; conditions: ningnanmycin at 100 ug/ml
# [22] = system: creeping bentgrass; conditions: field plots treated with ningnanmycin, 2010 and 2011
# [23] = system: Acidovorax aveane; assay: Preliminary in vitro antibacterial study; format: cell-based; conditions: ningnanmycin at 100 ug/ml
# [24] = system: Fish; conditions: species not given; cited from earlier work
smiles,measurement,setting,value
"CNCC(=O)NC(CO)C(=O)NC1C(C(N)=O)OC(n2ccc(N)nc2=O)C(O)C1O [ningnanmycin, 4-sarcosinamido-L-serinamido-4-deoxy-β-D-pyranoglucuronamido]",Acute toxicity Oral LD50,[1]; female,"12,100 mg/kg (female)"
same,Acute toxicity Oral LD50,[1]; male,"6,810 mg/kg (male)"
same,Irritation to eye,[2],no
same,in vitro activity,[3],demonstrated in vitro activity
same,in vitro activity,[4]; concentration not given,no in vitro activity
same,activity against strains infecting turfgrass,[4]; ningnanmycin at 100 ppm,not been able to detect any activity
same,in vitro activity,[5],demonstrated in vitro activity
same,Irritation to skin,[6],no
same,in vitro activity,[7],did not show any in vitro activity
same,efficacy against brown patch,[8],little to no efficacy
same,adverse effects in non-target organisms,[9],no adverse effects were observed
same,Sensitization,[10],no
same,EC50,"[11]; 72 h, isolate 761SHME, radial growth after 72 h, mean of two assays",0.02 µg/mL
same,EC50,"[11]; 72 h, isolate LWC 27, radial growth after 72 h, mean of two assays",0.01 µg/mL
same,EC50,"[11]; 72 h, isolate PST4, radial growth after 72 h, mean of two assays",0.01 µg/mL
same,EC50,"[11]; read-out: mean EC50, mean of three isolates",0.01 µg/mL
same,EC50,"[12]; 168 h, isolate ABR1, radial growth after seven days, mean of two assays",0.36 µg/mL
same,EC50,"[12]; 168 h, isolate ABR12, radial growth after seven days, mean of two assays",0.24 µg/mL
same,EC50,"[12]; read-out: mean EC50, mean of two isolates",0.3 µg/mL
same,in vitro activity,[13],demonstrated in vitro activity
same,Acute toxicity Dermal LD50,[14],">2,000 mg/Kg mg/kg"
same,"Non-mammals, honey bee",[15],200 μg/bee
same,in vitro activity,[16],showed in vitro activity
same,Aquatic plants EC50,[17],12.0 mg/L (72 h)
same,"carcinogenicity, reproductive toxicity, developmental effects",[18],"no carcinogenicity, reproductive toxicity, or developmental effects have been observed"
same,toxicity to mammals,[18],very low toxicity
same,in vitro activity,"[19]; ningnanmycin at 100 ug/ml, preliminary study",did not show any in vitro activity
same,activity against strains infecting turfgrass,[19]; ningnanmycin at 100 ppm,not been able to detect any activity
same,Turf quality,"[20]; Ningnanmycin 10WP 0.08 g/m^2, 7 d interval, Aug. 8, 2010",5
same,Turf quality,"[20]; Ningnanmycin 10WP 0.08 g/m^2, 7 d interval, Aug. 15, 2010",4
same,Turf quality,"[20]; Ningnanmycin 10WP 0.15 g/m^2, 7 d interval, Aug. 8, 2010",5
same,Turf quality,"[20]; Ningnanmycin 10WP 0.15 g/m^2, 7 d interval, Aug. 15, 2010",5
same,Turf quality,"[20]; Ningnanmycin 10WP 0.15 g/m^2, 10 d interval, Aug. 8, 2010",5
same,Turf quality,"[20]; Ningnanmycin 10WP 0.15 g/m^2, 10 d interval, Aug. 15, 2010",4
same,Turf quality,"[20]; Ningnanmycin 10WP 0.30 g/m^2, 10 d interval, Aug. 8, 2010",5
same,Turf quality,"[20]; Ningnanmycin 10WP 0.30 g/m^2, 10 d interval, Aug. 15, 2010",4
same,Turf quality,"[20]; Ningnanmycin 10WP 0.30 g/m^2, 14 d interval, Aug. 8, 2010",4
same,Turf quality,"[20]; Ningnanmycin 10WP 0.30 g/m^2, 14 d interval, Aug. 15, 2010",4
same,anthracnose control (in words),"[20]; 0.15 g/m^2, 7-day interval",satisfactory level of control
same,anthracnose control (in words),"[20]; 0.15 g/m^2, 14-day interval",lowest suppression of anthracnose but still provided significant suppression compared to the untreated
same,anthracnose control (in words),"[20]; 0.30 g/m^2, 7-day interval",highest level of anthracnose control
same,anthracnose control (in words),"[20]; 0.30 g/m^2, 14-day interval",lowest suppression of anthracnose but still provided significant suppression compared to the untreated
same,Anthracnose severity (%),"[20]; Ningnanmycin 10WP 0.08 g/m^2, 7 d interval, Aug. 1, 2011",16%
same,Anthracnose severity (%),"[20]; Ningnanmycin 10WP 0.08 g/m^2, 7 d interval, Aug. 8, 2011",4%
same,Anthracnose severity (%),"[20]; Ningnanmycin 10WP 0.08 g/m^2, 7 d interval, Aug. 15, 2011",15%
same,Anthracnose severity (%),"[20]; Ningnanmycin 10WP 0.08 g/m^2, 7 d interval, Jul. 25, 2011",20%
same,Anthracnose severity (%),"[20]; Ningnanmycin 10WP 0.15 g/m^2, 7 d interval, Aug. 1, 2011",9%
same,Anthracnose severity (%),"[20]; Ningnanmycin 10WP 0.15 g/m^2, 7 d interval, Aug. 8, 2011",3%
same,Anthracnose severity (%),"[20]; Ningnanmycin 10WP 0.15 g/m^2, 7 d interval, Aug. 15, 2011",9%
same,Anthracnose severity (%),"[20]; Ningnanmycin 10WP 0.15 g/m^2, 7 d interval, Jul. 25, 2011",17%
same,Anthracnose severity (%),"[20]; Ningnanmycin 10WP 0.15 g/m^2, 10 d interval, Aug. 1, 2011",18%
same,Anthracnose severity (%),"[20]; Ningnanmycin 10WP 0.15 g/m^2, 10 d interval, Aug. 8, 2011",8%
same,Anthracnose severity (%),"[20]; Ningnanmycin 10WP 0.15 g/m^2, 10 d interval, Aug. 15, 2011",17%
same,Anthracnose severity (%),"[20]; Ningnanmycin 10WP 0.15 g/m^2, 10 d interval, Jul. 25, 2011",21%
same,Anthracnose severity (%),"[20]; Ningnanmycin 10WP 0.30 g/m^2, 10 d interval, Aug. 1, 2011",20%
same,Anthracnose severity (%),"[20]; Ningnanmycin 10WP 0.30 g/m^2, 10 d interval, Aug. 8, 2011",3%
same,Anthracnose severity (%),"[20]; Ningnanmycin 10WP 0.30 g/m^2, 10 d interval, Aug. 15, 2011",15%
same,Anthracnose severity (%),"[20]; Ningnanmycin 10WP 0.30 g/m^2, 10 d interval, Jul. 25, 2011",16%
same,Anthracnose severity (%),"[20]; Ningnanmycin 10WP 0.30 g/m^2, 14 d interval, Aug. 1, 2011",14%
same,Anthracnose severity (%),"[20]; Ningnanmycin 10WP 0.30 g/m^2, 14 d interval, Aug. 8, 2011",6%
same,Anthracnose severity (%),"[20]; Ningnanmycin 10WP 0.30 g/m^2, 14 d interval, Aug. 15, 2011",13%
same,Anthracnose severity (%),"[20]; Ningnanmycin 10WP 0.30 g/m^2, 14 d interval, Jul. 25, 2011",20%
same,in vitro activity,[21],did not show any in vitro activity
same,plant growth regulator effects,[22],no plant growth regulator effects were observed
same,in vitro activity,[23],did not show any in vitro activity
same,Fish LC50 (96 h),[24],">1,000 mg/L"
